Patent US8569242B2, “Method of treating degenerative disorders of the nervous system” (The Regents of the University of California, priority 2005, dated 2013)
“And” between values parts separate entries of the source, which are not always exact repeats. Equal entries are not always repeated.

Tests used:
primary microglia = assay: Morphometry of microglia activation (Isolectin B4 staining, cell size); type: cell-based, mouse
Method: Culture of primary microglia cells. Microglia were isolated from cultures of mixed cortical cells as described (59). In brief, cortices from P1 mice were isolated and digested with trypsin (0.4%) for 20 minutes at 37° C. Cells from 4 pups were plated onto PDL-coated 75 cm2 tissue-culture flasks. The culture medium (DMEM, 10% heat-inactivated FBS, and 1% Pen/Strep) was changed on day 2. After 2-3 weeks in culture, the microglia were removed by the addition of 12 mM lidocaine (Sigma-Aldrich, St. Louis, Mo.) and orbital shaking (180 rpm) for 20 minutes at 37° C. The cells were centrifuged (350×G) and the pellet was resuspended in complete medium and plated onto PDL-coated tissue culture dishes. Microglia cell cultures were >95% pure as determined with three different markers, IsoB4, IBA-1 and CD11b. To immobilize fibrinogen, tissue culture dishes were incubated overnight with 50 μg/mL fibrinogen (Calbiochem, San Diego, Calif.) in 20 mM Tris (pH 7.5) and 0.1 M NaCl at 37° C. for all fibrinogen treatments. To serve as positive controls, LPS (Sigma-Aldrich, St. Louis, Mo.) was added to the media at 1 μg/mL.
Morphometry. Primary microglia were used for all morphologic analysis. Cells were plated on coated fibrinogen or in the presence of LPS for 72 hours. Microglia were fixed with methanol and immunostained with Isolectin B4 (1:300, Sigma-Aldrich, St. Louis, Mo.). Activated microglia were quantificated as those cells larger than 2,000 μm^2. Blocking experiments involved the daily administration of rat anti-CD11b (10 μg/mL, eBioscience, San Diego, Calif.), γ^377-395 peptide (200 μM) or rat IgG (10 μg/mL, Jackson ImmunoResearch Laboratories, West Grove, Pa.). Results were obtained from six separate experiments performed in duplicates. 250 cells per condition were counted for each individual experiment. Statistical calculations were made by using Student's t test.

[1] = test system: primary murine microglia and a murine microglia cell line (BV2); assay: Vybrant phagocytosis assay in microglia; type: cell-based, mouse; details: fluorescent E. coli; stimulation with immobilized fibrinogen or LPS
Method: Phagocytosis assay. Phagocytosis assays were performed on both primary murine microglia and a murine microglia cell line (BV2). BV2 cells are an established cell line used to study microglia responses (46). BV2 cells were routinely passaged in DMEM, 20% heat inactivated FBS, and 1% Pen/Strep. Microglia phagocytosis was assessed using the Vybrant phagocytosis assay kit (Molecular Probes, Eugene, Oreg.) according to the manufacturer's recommendations. Microglia were cultured in 96-well plates at 5,000 cells/well for 36 hours at 37° C. Blocking experiments included the addition of LY294002 (1 μM, Cell Signaling, Beverly, Mass.), rat anti-CD11b ([…], eBioscience, San Diego, Calif.), rat anti-TLR4 (10 μg/mL, eBioscience, San Diego, Calif.) or rat IgG (10 μg/mL, Jackson ImmunoResearch Laboratories, West Grove, Pa.) to the media. Results were obtained from four separate experiments performed in triplicates. Statistical calculations were made by using Student's t-test.

RhoA = RhoA activation (GST-Rhotekin pull-down, immunoblot) in microglia; type: cell-based, mouse; details: fibrinogen 6 hours, LPS 10 minutes; densitometry
Method: (§1) Immunoblots. Western blots were performed using standard protocols (55). Microglia were serum-starved overnight and plated on fibrinogen or with LPS for 6 hours. Lysates were electrophoresed on 4-12% gradient SDS-PAGE gels and probed with phospho and total Akt antibodies (1:1000, Cell Signaling, Beverly, Mass.). RhoA activation was performed as described (60). Briefly, 2×107 microglia were plated on fibrinogen for 6 hours or with LPS for 10 minutes. Cell lysates were incubated with GST-Rhotekin agarose beads (kindly provided by Dr. Joan Heller Brown, UCSD) for 45 minutes at 4° C. The beads were washed, resuspended in Laemmli sample buffer, and electophoresed on a 15% SDS-PAGE gel. Activated and total Rho were detected with mouse anti-RhoA (1:500, Santa Cruz Biotechnology, Santa Cruz, Calif.). Densitometry was performed using the NIH Scion Image software using three blots from three separate experiments.

Akt = Akt phosphorylation immunoblot in microglia; type: cell-based, mouse; details: fibrinogen or LPS 6 hours; densitometry
Method: as §1

fibrin = target: T1, fibrin (Mus musculus, UniProt E9PV24+Q8K0E8+Q8VCM7); assay: In vitro fibrin polymerization turbidity assay in plasma; type: biochemical; details: citrate plasma, bovine thrombin 0.2 U/ml, OD350
T1 construct: from tissue; host or cells: citrated mouse plasma, diluted tenfold
T1 sequence (Q8VCM7 26-436): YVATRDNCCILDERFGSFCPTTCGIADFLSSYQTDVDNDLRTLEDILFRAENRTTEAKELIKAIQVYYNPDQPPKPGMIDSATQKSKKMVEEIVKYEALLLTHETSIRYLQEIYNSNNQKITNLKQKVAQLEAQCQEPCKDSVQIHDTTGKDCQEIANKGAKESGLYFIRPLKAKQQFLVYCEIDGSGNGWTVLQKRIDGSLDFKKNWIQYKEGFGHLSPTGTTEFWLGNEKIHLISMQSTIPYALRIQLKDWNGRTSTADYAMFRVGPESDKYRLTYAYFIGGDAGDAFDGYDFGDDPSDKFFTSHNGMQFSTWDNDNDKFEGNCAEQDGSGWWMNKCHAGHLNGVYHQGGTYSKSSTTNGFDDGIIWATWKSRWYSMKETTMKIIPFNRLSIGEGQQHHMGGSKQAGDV
T1 sequence (E9PV24 37-789 limits assumed): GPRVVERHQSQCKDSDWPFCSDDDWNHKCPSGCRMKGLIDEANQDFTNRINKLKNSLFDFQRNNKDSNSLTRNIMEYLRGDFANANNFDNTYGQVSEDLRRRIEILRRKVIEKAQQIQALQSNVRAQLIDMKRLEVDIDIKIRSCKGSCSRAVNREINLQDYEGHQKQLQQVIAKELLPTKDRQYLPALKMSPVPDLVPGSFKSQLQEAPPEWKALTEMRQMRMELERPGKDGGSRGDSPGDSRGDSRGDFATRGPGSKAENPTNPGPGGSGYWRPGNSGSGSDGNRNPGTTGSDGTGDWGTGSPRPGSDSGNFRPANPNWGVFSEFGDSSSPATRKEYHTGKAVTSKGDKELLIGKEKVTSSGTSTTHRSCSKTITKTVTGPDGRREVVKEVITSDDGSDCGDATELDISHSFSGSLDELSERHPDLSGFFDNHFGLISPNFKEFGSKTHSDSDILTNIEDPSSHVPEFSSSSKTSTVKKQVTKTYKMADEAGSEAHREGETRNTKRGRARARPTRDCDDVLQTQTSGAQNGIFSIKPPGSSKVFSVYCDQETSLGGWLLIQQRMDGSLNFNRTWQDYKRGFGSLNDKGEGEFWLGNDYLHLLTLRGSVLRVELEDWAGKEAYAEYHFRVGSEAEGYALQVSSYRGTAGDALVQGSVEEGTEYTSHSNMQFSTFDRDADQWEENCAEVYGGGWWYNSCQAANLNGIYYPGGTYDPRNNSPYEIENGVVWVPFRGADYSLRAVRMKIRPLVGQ
T1 sequence (Q8K0E8 35-481 limits assumed): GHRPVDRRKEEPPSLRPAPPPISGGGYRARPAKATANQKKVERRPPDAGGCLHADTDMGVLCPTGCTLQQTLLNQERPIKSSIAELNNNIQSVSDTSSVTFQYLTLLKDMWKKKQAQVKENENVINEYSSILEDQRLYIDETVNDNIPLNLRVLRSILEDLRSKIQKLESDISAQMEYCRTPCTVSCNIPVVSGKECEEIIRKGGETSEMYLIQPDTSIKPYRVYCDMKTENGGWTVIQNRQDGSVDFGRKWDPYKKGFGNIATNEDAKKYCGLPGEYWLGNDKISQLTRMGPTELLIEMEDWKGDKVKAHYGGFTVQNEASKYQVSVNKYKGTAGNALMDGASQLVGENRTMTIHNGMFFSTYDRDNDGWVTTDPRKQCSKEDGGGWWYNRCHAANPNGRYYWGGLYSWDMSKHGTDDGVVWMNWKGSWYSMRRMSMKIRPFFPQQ
Method: Hematological Analyses. Citrated plasma was prepared from mice administered intranasally 30 μg or 90 μg of γ^377-395 peptide or saline control daily for seven days. Plasma clotting times were measured by combining 10 μl of citrated plasma with 10 μl of 2 U/ml bovine thrombin (Enzyme Research Laboratories, South Bend, Ind., USA) and 40 mM. CaCl2 in a weigh boatfloating in a 37° C. water bath. Time to clot was determined by mixing with a toothpick. Plasma thrombin times were established as described previously (15). Fibrin polymerization was evaluated by standard turbidity assays using plasma. Briefly, citrate plasma (diluted tenfold in 20 mM HEPES, pH 7.4, containing 0.15 M NaCl and 5 mM-amino caproic acid) was combined with bovine thrombin (final concentration 0.2 U/ml; Enzyme Research Laboratories, South Bend, Ind., USA), and Ca^2+ (10 mM), and OD350 measurements were taken every 30 seconds.

Substance	changes in microglia morphology (primary microglia; soluble, not immobilized, fibrinogen, data not shown)	% of activated microglia (primary microglia; stimulation with immobilized fibrinogen alone, 72 hours, activated = cells larger than 2,000 μm^2)	increase in phagocytosis as compared to untreated controls [1]	increase of active RhoA (RhoA)	increase in Akt phosphorylation (Akt)	effect on fibrin polymerization (fibrin)	effect on fibrin polymerization (fibrin; listed as GPRP)
Fibrinogen	did not induce changes in microglia morphology	85.5±1.4% and 71±4.9%	65.3%	1.9 fold	24 fold	–	–
GPRP [GPRP peptide, reference compound]	–	–	–	–	–	inhibits	significantly attenuated
Lipopolysaccharide [LPS, reference compound]	–	–	39.1%	2.4 fold	34 fold	–	–
